# Results: patent US6258837A, “Neuropeptide Y receptor antagonist” (Banyu Pharmaceutical Co., Ltd., priority 1997, dated 2001)
# Assays:
# SD male rats [1] = assay: test of inhibition of feeding behavior induced by bPP; assay type: in vivo, rat; settings: oral, one hour before bPP (5 μg/head/10 μl, lateral cerebral ventricle); food intake during two hours
# Experimental: Under pentobarbital anesthesia (single intraperitoneal injection of 50 mg/kg), a chronic guide cannula (outer diameter 0.8 mm; inner diameter 0.5 mm; length 10 mm) was stereotactically inserted in a right lateral cerebral ventricle of each of SD male rats (7 to 8-week-old; 200 to 300 g) and fixed using a dental resin. A tip of the guide cannula was positioned 0.9 mm behind a bregma, 1.2 mm at the right of a median line and in the depth of 1.5 mm from the brain surface. An inner needle was inserted such that its tip projected from the tip of the guide cannula by about 2 mm and arrived to a lateral cerebral ventricle. After a recovery period of about one week, a bovine pancreatic polypeptide (bpp, 5 μg/head/10 μl) was administered to the lateral cerebral ventricle. A compound to be tested was orally administered one hour before the administration of bpp and food intake during two hours from the administration was measured. In this connection, the compound to be tested was administered after dissolving in a 0.5% aqueous methyl cellulose solution and bpp was administered after dissolving in 10 mM phosphate buffered saline.
# human NPY Y5 receptor = target: T1, human NPY Y5 receptor (Homo sapiens, UniProt Q15761); assay: test of inhibition of NPY binding ([125I]peptide YY binding to membranes of cells expressing the NPY Y5 receptor)
# T1 construct: expressed in transfected cells; host or cells: COS-7, CHO and LM(tk-)
# T1 sequence (Q15761 1-445): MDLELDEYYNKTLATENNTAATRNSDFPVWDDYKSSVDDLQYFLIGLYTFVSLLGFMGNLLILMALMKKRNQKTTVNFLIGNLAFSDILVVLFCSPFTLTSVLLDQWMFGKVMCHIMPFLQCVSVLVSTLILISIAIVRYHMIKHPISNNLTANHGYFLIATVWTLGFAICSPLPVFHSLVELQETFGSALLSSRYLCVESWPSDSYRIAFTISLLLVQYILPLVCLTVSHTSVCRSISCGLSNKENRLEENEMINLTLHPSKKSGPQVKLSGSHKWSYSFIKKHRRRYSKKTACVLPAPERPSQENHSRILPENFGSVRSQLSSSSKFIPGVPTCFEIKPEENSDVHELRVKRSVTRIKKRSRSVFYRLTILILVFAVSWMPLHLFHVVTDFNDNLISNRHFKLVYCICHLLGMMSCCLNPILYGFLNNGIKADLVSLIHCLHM
# Text: cDNA Sequence encoding a human NPY Y5 receptor [International Publication WO 96/16542] was cloned into expression vectors pcDNA3, pRc/RSV (manufactured by Invitrogen) and pCI-neo (manufactured by Promega). Using the cationic lipid method [see Proceedings of the National Academy of Science of the United States of America, vol.84, p.7413 (1987)], host cells COS-7, CHO and LM(tk-) (American Type Culture Collection) were transfected with the thus prepared expression vectors to obtain cells in which the NPY Y5 receptor had been expressed.
# After washing with 50 mM Tris buffer, pH 7.4, containing 0.3% BSA, radioactivity on the glass filter was measured using a gamma counter. Non-specific binding was measured in the presence of 1 μM of peptide YY to calculate a concentration of each compound to be tested which concentration is needed to inhibit 50% of the specific binding of the peptide YY (IC50 value) [see Endocrinology, vol.131, p.2090 (1992)].
# SD male rats [2] = assay: acute toxicity test; assay type: in vivo, rat; settings: 500 mg/kg oral
# Experimental: A compound to be tested in an amount of 500 mg/kg was orally administered to each of SD male rats (10-week-old; 300 to 400 g). After immediately, 5 minutes, 30 minutes, 1 hour, 2 hours, 4 hours, 6 hours, 8 hours and 24 hours from the administration, the condition of each rat was observed. And, after 24 hours from the administration, the rat was killed by dehematizing via carotid artery and then laparotomized in order to observe the presence or absence of any change in abdominal organs by the naked eye. In this connection, the compound to be tested was administered in a dose of 5 ml/kg after suspending in a 0.5% aqueous methyl cellulose solution.
smiles,measurement,setting,value
"CC1(C)CC(=O)C(C2C3=C(CC(C)(C)CC3=O)Oc3ccccc32)C(=O)C1 (racemic) [compound [I], 3,3-dimethyl-9-(4,4-dimethyl-2,6-dioxo-cyclohexyl)-1-oxo-1,2,3,4-tetrahydroxanthene]",inhibition of the increase in food intake induced by bPP,SD male rats [1],significantly inhibits the increase in food intake
same,IC50,"human NPY Y5 receptor; [125I] peptide YY, 25° C., 2 hours, pH 7.4, membrane preparations, read-out: concentration needed to inhibit 50% of the specific binding of the peptide YY (IC50 value)",27 nM
same,inhibition of the binding of the peptide YY to the NPY Y5 receptor (in words),human NPY Y5 receptor; peptide YY (a homologue of NPY),strongly inhibited the binding
same,change in abdominal organs observed by the naked eye (acute toxicity),SD male rats [2]; 24 hours after administration,abdominal organs were observed to be unchanged
same,general health of each rat (acute toxicity),SD male rats [2]; until 24 hours after administration,no abnormality in general health of each rat was observed
